Assay results as given in US8846125B2, “Enaminocarbonyl compounds and their use” (Instytut Chemii Organicznej, Polska Akademia Nauk, priority 2009, dated 2014).

Assays:
Format in all cases: in vivo, healthy men
[1] = system: perception of sweet taste (panel members); experiment: Qualitative evaluation of the perception of sweet taste by a 5-volunteer panel; set-up: key to Perception of sweet taste: +: perception of sweet taste; ++: very strong perception of sweet taste; −: absence of sweet taste; settings: 4000 ppm solution in 20% ethanol, 5 panel members; for Perception of sweet taste: 10 ml mouth rinse 20 s
Description: Compounds according to the present invention destined for testing of their taste perception modifying properties were re-crystallized from ethanol or an ethanol-water mixture.
Qualitative evaluation of the perception of sweet taste; the examined substances were dissolved in a 20% ethanol and water mixture (vol./vol.).
Three initial solutions were formulated, containing: • the compound of example 1 (3-benzylaminomethylenedihydrofuran-2-one, 4000 ppm solution-400 mg in 100 ml 20% ethanol), • compound of example 2 ((R)-3-(1-phenylethylamino)methylenedihydrofuran-2-one, 4000 ppm solution-400 mg in 100 ml 20% ethanol), • compound of example 6 (2-benzylaminomethylenecyclopentanone, 4000 ppm solution−400 mg in 100 ml 20% ethanol).
Solutions of lower concentrations were obtained through dilution, to appropriate proportions, of the initial solutions with a 20% mixture of ethanol and distilled water (vol./vol.).
(§1) Evaluation of the degree of sweetness of the compounds according to the present invention was performed using a 5-volunteer panel—healthy men—henceforth referred to as panel members. All panel members were informed of the need to maintain safety procedures during the evaluation of the compounds according to the present invention, In particular, of the need to avoid swallowing the tested solutions. Each of the panel members received a 10 ml sample of a solution in a small vial and rinsed out their mouth with the entire contents of the vial for 20 seconds and then spit out the tested solution. Next, they carefully rinsed out their mouth with a large volume of distilled water (at least 150 ml) for at least 30 seconds. When the panel member felt that they no longer perceived any taste, they could proceed with the evaluation of the next solution.
During the first stage, the panel members qualitatively examined the taste of the three initial solutions containing 4000 ppm of a compound according to the present invention. The panel members all agreed that the solutions have an intensive sweet taste.
An additional qualitative evaluation was made of compounds according to the present invention from examples 4, 7 and 9, and compounds from comparative examples 1-19, in the form of 4000 ppm solutions. […] Solutions of compounds from the comparative examples lack a sweet taste.

[2] = system: perception of sweetness (panel members); experiment: Comparative analysis of the intensity of the sweet taste against a 10% saccharose reference solution; settings: for Results of sweetness comparisons against the reference solution [+] (sample sweeter) / Results of sweetness comparisons against the reference solution [=] (unable to tell) / Results of sweetness comparisons against the reference solution [−] (sample less sweet): count out of 10 comparative tests, reference 10% saccharose in 20% ethanol
Description: During the next stage, we performed a comparative analysis of the intensity of the sweet taste. In the study we used the compound of example 1 (3-benzyl-aminomethylenedihydrofuran-2-one). The subject of the study consisted of samples of the initial 4000 ppm solution, and samples of diluted solutions containing 2000, 1000, 800 and 500 ppm of the compound of example 1.
The reference solution comprised 10% saccharose (wt./wt.) in 20% ethanol, containing 100000 ppm (wt./wt.) saccharose.
The study operator gave the panel members samples of the compound with the formula 1 marked with randomly generated 3-digit numbers, and also samples of the reference solution of saccharose in order to compare the perception of sweetness to the saccharose reference solution. Each of the 5 panel members received for comparison random samples of the solutions of the compound of example 1, twice, containing 4000 ppm, 2000 ppm, 1000 ppm, 800 ppm and 500 ppm of the compound. Each concentration was thus examined in 10 comparative tests.
The task for each panel member was to determine whether a given sample is less or more sweet than the reference solution. Each of the panel members completed a form according to the following rules: if a sample was sweeter, then he placed a plus sign [+] beside the symbol of the sample, if it was less sweet, a minus sign [−], and if in doubt, an equal sign [=]. Similar to the qualitative analysis, each of the panel members received a sample of 10 ml of a solution in a small vial, gently rinsed his mouth out with it for 20 seconds and then spat out the tested solution. Next, he carefully rinsed out his mouth with a large volume of distilled water (at least 150 ml) for at least 30 seconds. When the panel member felt that he no longer perceived any taste, he could proceed with the evaluation of the next solution.

[3] = system: sweet taste of sweet-tasting products (panel members); experiment: Inhibition of sweet taste of sweet products, commercial sweeteners and sweet compounds by the compound of example 3; set-up: key to Perceived sweet taste: ++: Strong perception of sweet taste; key to Perception of sweet taste following the addition of the compound of example 3: <<+: Weak or absent perception of sweet taste; settings: for Perceived sweet taste: without compound of example 3
Description: Evaluation of the degree of sweetness of the compounds according to the present invention was performed using a 5-volunteer panel-healthy men-henceforth referred to as panel members. All panel members were informed of the need to maintain safety procedures during the evaluation of the compounds according to the present invention, In particular, of the need to avoid swallowing the tested solutions. Each of the panel members received a 10 ml sample of a solution in a small vial and rinsed out their mouth with the entire contents of the vial for 20 seconds and then spit out the tested solution. Next, they carefully rinsed out their mouth with a large volume of distilled water (at least 150 ml) for at least 30 seconds. When the panel member felt that they no longer perceived any taste, they could proceed with the evaluation of the next solution. Solutions of sweet products were prepared (saccharose, glucose, bee honey, glycine), by dissolving 100 mg of the product in 5 ml 20% aqueous ethanol. Two solutions are prepared of each product. One of these solutions is supplemented with a compound according to example 3 of the present invention (100 mg). Next, the taste of both solutions is compared for evaluating the qualitative perception of the taste of both solutions, proceeding according to the procedure established above, for the qualitative evaluation of the perception of sweet taste. The study results are compiled in Table 4. Solutions of commercially available sweeteners were prepared (“Sweet Top®” containing aspartame and […]®” containing sorbitol, sodium cyclamate and sodium saccharinate), by dissolving 5 mg of the sweetener in 20 ml of 20% aqueous ethanol. Each sweetener solution was made up twice. One of these solutions was supplemented with a compound according to example 3 of the present invention (5 mg). Next, the taste of both solutions was evaluated proceeding according to the procedure shown above, for the qualitative evaluation of the perception of sweet taste. The study results are compiled in Table 4. Solutions of compounds with a sweet taste according to the present invention were prepared (compounds of examples 1, 2 and 6), dissolving 5 mg of the compound according to the present invention in 20 ml 20% of aqueous ethanol. Two solutions were made of each compound of examples 1, 2 and 6. One of these solutions was supplemented with the compound of example 3 according to the present invention (5 mg). Next, the taste of both solutions was evaluated proceeding according to the above procedure for the qualitative evaluation of the perception of sweet taste. The study results are compiled in Table 4.

[4] = system: sweet taste of saccharose (panel members); experiment: Inhibition of sweet taste of a saccharose solution, qualitative panel evaluation; set-up: key to Inhibition of sweet taste: ++: complete inhibition of sweet taste; −: lack of inhibition of sweet taste; settings: 100 mg saccharose in 5 ml 20% aqueous ethanol plus 100 mg compound, vs saccharose solution without compound
Description: as §1
The inhibition of sweet taste of sweet substances or mixtures thereof by inhibitors of sweet taste according to the present invention was examine qualitatively according to the following procedure. Two samples of saccharose, each of 100 mg, are dissolved in 5 ml 20% of aqueous ethanol, and then one solution is supplemented with 100 mg of a compound of an example according to the present invention (compounds from examples 3, 5, and 8). Next, the taste of both solutions is evaluated using the procedure presented above, for the qualitative perception of a sweet taste. […] The study was also performed on compounds from comparative examples 1-19.

[5] = approximate interpretation of the dilution series, comparison with a 10% saccharose solution in 20% ethanol
[6] = 5 mg in 20 ml 20% aqueous ethanol plus 5 mg compound of example 3
[7] = 5 mg in 20 ml 20% aqueous ethanol
[8] = 100 mg product in 5 ml 20% aqueous ethanol plus 100 mg compound of example 3
[9] = 100 mg product in 5 ml 20% aqueous ethanol

SMILES: O=C1OCCC1=CNCc1ccccc1 [Example 1, 3-Benzylaminomethylenedihydrofuran-2-one]
- Perception of sweet taste [1]: ++
- Results of sweetness comparisons against the reference solution [+] (sample sweeter) ([2]; 500 ppm in 20% ethanol): 2
- Results of sweetness comparisons against the reference solution [=] (unable to tell) ([2]; 500 ppm in 20% ethanol): 2
- Results of sweetness comparisons against the reference solution [−] (sample less sweet) ([2]; 500 ppm in 20% ethanol): 6
- Results of sweetness comparisons against the reference solution [+] (sample sweeter) ([2]; 800 ppm in 20% ethanol): 2
- Results of sweetness comparisons against the reference solution [=] (unable to tell) ([2]; 800 ppm in 20% ethanol): 6
- Results of sweetness comparisons against the reference solution [−] (sample less sweet) ([2]; 800 ppm in 20% ethanol): 2
- Results of sweetness comparisons against the reference solution [+] (sample sweeter) ([2]; 1000 ppm in 20% ethanol): 8
- Results of sweetness comparisons against the reference solution [−] (sample less sweet) ([2]; 1000 ppm in 20% ethanol): 2
- Results of sweetness comparisons against the reference solution [+] (sample sweeter) ([2]; 2000 ppm in 20% ethanol): 10
- Results of sweetness comparisons against the reference solution [+] (sample sweeter) ([2]; 4000 ppm in 20% ethanol): 10
- Times sweeter than saccharose [2, 5]: 200-250 times
- Times sweeter than saccharose ([2]; concluded from the initial 4000 ppm solution vs 10% saccharose reference): at least 50 times
- Sweetness of the initial solution compared with the reference solution (saccharose) ([2]; initial 4000 ppm solution vs 10% saccharose (100000 ppm) in 20% ethanol, all panel members): much sweeter than the reference solution
- Perception of sweet taste following the addition of the compound of example 3 [3, 6]: <<+
- Sweet taste of the solution with an addition of the compound of example 3 (in words) [3, 6]: only a trace perceived sweet taste
- Perceived sweet taste [3, 7]: ++

SMILES: C[C@@H](NC=C1CCOC1=O)c1ccccc1 [Example 2, (R)-3-(1-phenylethyl)aminomethylenedihydrofuran-2-one]
- Perception of sweet taste [1]: ++
- Times sweeter than saccharose [2, 5]: 200-250 times
- Perception of sweet taste following the addition of the compound of example 3 [3, 6]: <<+
- Sweet taste of the solution with an addition of the compound of example 3 (in words) [3, 6]: does not exhibit a sweet taste
- Perceived sweet taste [3, 7]: ++

SMILES: C[C@H](NC=C1CCOC1=O)c1ccccc1 [Example 3, (S)-3-(1-phenylethyl)aminomethylenedihydrofuran-2-one]
- Inhibition of sweet taste [4]: ++
- Taste of the saccharose solution with the compound [4]: practically not sweet at all

SMILES: CC[C@@H](NC=C1CCOC1=O)c1ccccc1 [Example 4, (R)-3-(1-phenylpropylo)aminomethylenedihydrofuran-2-one]
- Taste of the solution as described by the panel members [1]: intensively sweet taste
- Perception of sweet taste [1]: ++

SMILES: CC[C@H](NC=C1CCOC1=O)c1ccccc1 [Example 5, (S)-3-(1-phenylpropylo)aminomethylenedihydrofuran-2-one]
- Inhibition of sweet taste [4]: ++
- Taste of the saccharose solution with the compound [4]: practically not sweet at all

SMILES: O=C1CCCC1=CNCc1ccccc1 [Example 6, 2-Benzylaminomethylenecyclopentanone]
- Perception of sweet taste [1]: ++
- Times sweeter than saccharose [2, 5]: at least 250 times
- Perception of sweet taste following the addition of the compound of example 3 [3, 6]: <<+
- Sweet taste of the solution with an addition of the compound of example 3 (in words) [3, 6]: only a trace perceived sweet taste
- Perceived sweet taste [3, 7]: ++

SMILES: C[C@@H](NC=C1CCCC1=O)c1ccccc1 [Example 7, (R)-2-(1-phenylethyl)aminomethylenecyclopentanone]
- Taste of the solution as described by the panel members [1]: intensively sweet taste
- Perception of sweet taste [1]: ++

SMILES: C[C@H](NC=C1CCCC1=O)c1ccccc1 [Example 8, (S)-2-(1-phenylethyl)aminomethylenecyclopentanone]
- Inhibition of sweet taste [4]: ++
- Taste of the saccharose solution with the compound [4]: practically not sweet at all

SMILES: O=C1OCCC1=CNCc1cccnc1 [Example 9, 3-(3-pirydylomethyl)aminomethylenedihydrofuran-2-one]
- Bitter side taste [1]: somewhat bitter
- Taste of the solution as described by the panel members [1]: significantly less sweet than the solution of 3-benzylaminomethylenedihydrofuran-2-one
- Bitter side taste ([1]; listed as example 9): admixture of a bitter taste
- Perception of sweet taste [1]: +

SMILES: NCC(=O)O [glycine, reference compound]
- Perception of sweet taste following the addition of the compound of example 3 [3, 8]: <<+
- Sweet taste of the solution with an addition of the compound of example 3 (in words) [3, 8]: do not elicit the perception of a sweet taste, not even a weak one
- Perceived sweet taste [3, 9]: ++

SMILES: OC[C@H]1O[C@@](CO)(O[C@H]2O[C@H](CO)[C@@H](O)[C@H](O)[C@H]2O)[C@@H](O)[C@@H]1O [saccharose, reference compound]
- Perception of sweet taste following the addition of the compound of example 3 [3, 8]: <<+
- Sweet taste of the solution with an addition of the compound of example 3 (in words) [3, 8]: do not elicit the perception of a sweet taste, not even a weak one
- Perceived sweet taste [3, 9]: ++
